Results published in US11180504B2 (ORCHID PHARMA LTD., priority 2016, dated 2021).
Converted amounts (≈) assume the structure as drawn.

Assays:
[1] = tested on: carbapenem sensitive Escherichia coli; test: MIC by broth micro-dilution (CLSI), carbapenem sensitive E. coli; format: cell-based; conditions: Escherichia coli, ATCC25922, ESBL −ve E. coli ATCC25922; read-out: MIC
[2] = tested on: carbapenem sensitive Pseudomonas aeruginosa; test: MIC by broth micro-dilution (CLSI), carbapenem sensitive P. aeruginosa; format: cell-based; conditions: Pseudomonas aeruginosa, ATCC27853, Meropenem susceptible P. aeruginosa ATCC27853; read-out: MIC
[3] = tested on: extended spectrum β lactamase (ESBL) SHV18 producing Klebsiella pneumoniae; test: MIC by broth micro-dilution (CLSI), ESBL SHV18 producing K. pneumoniae; format: cell-based; conditions: Klebsiella pneumoniae, ATCC700603, 22 h, ESBL +ve (SHV-18) K. pneumoniae ATCC700603; read-out: MIC
[4] = tested on: carbapenemase producing K. pneumoniae; test: MIC by broth micro-dilution (CLSI), carbapenemase producing K. pneumoniae; format: cell-based, Klebsiella pneumoniae; conditions: Klebsiella pneumoniae, ATCCBAA1705, KPC-2 K. pneumoniae ATCC BAA-1705; read-out: MIC
[5] = tested on: methicillin-sensitive Staphylococcus aureus; test: MIC by broth micro-dilution (CLSI), methicillin-sensitive S. aureus; format: cell-based; conditions: Staphylococcus aureus, ATCC 29213 / MSSA, MSSA S. aureus ATCC29213; read-out: MIC

MIC [1] [µg/mL] | MIC [2] [µg/mL] | MIC [3] [µg/mL] | MIC [4] [µg/mL] | MIC [5] [µg/mL] | SMILES
1 (≈ 1.94 µM) | 4 (≈ 7.76 µM) | 4 (≈ 7.76 µM) | 4 (≈ 7.76 µM) | 2 (≈ 3.88 µM) | C[C@@H](NC(=O)C(F)F)[C@H]1C(=O)N2C(C(=O)O)=C(S[C@@H]3CN[C@H](C(=O)N4CC[C@@H](CN)C4)C3)[C@H](C)[C@H]12 [Example 219]
1 (≈ 1.97 µM) | 2 (≈ 3.93 µM) | 2 (≈ 3.93 µM) | 2 (≈ 3.93 µM) | 32 (≈ 62.9 µM) | CNCC(=O)N[C@H](C)[C@H]1C(=O)N2C(C(=O)O)=C(S[C@@H]3CN[C@H](C(=O)N4CC[C@@H](CN)C4)C3)[C@H](C)[C@H]12 [Example 220]
2 (≈ 3.72 µM) | 4 (≈ 7.44 µM) | 2 (≈ 3.72 µM) | 2 (≈ 3.72 µM) | 32 (≈ 59.5 µM) | CNCC(=O)N[C@H](C)[C@H]1C(=O)N2C(C(=O)O)=C(S[C@@H]3CN[C@H](C(=O)N4CCN(CCN)CC4)C3)[C@H](C)[C@H]12 [Example 221]
2 | 8 | 8 | 4 | 64 | CNCC(=O)N[C@H](C)[C@H]1C(=O)N2C(C(=O)O)=C(S[C@@H]3CN[C@H](C(=O)N4CC[N+](C)(CCN)CC4)C3)[C@H](C)[C@H]12 [Example 222]
1 (≈ 1.94 µM) | 64 (≈ 124 µM) | 32 (≈ 61.9 µM) | 2 (≈ 3.87 µM) | 16 (≈ 31 µM) | C[C@@H](NC(=O)[C@@H]1CCCN1)[C@H]1C(=O)N2C(C(=O)O)=C(S[C@@H]3CN[C@H](CNS(N)(=O)=O)C3)[C@H](C)[C@H]12 [Example 225]
1 (≈ 1.94 µM) | 64 (≈ 124 µM) | 32 (≈ 61.9 µM) | 8 (≈ 15.5 µM) | 32 (≈ 61.9 µM) | C[C@@H](NC(=O)[C@H]1CCCN1)[C@H]1C(=O)N2C(C(=O)O)=C(S[C@@H]3CN[C@H](CNS(N)(=O)=O)C3)[C@H](C)[C@H]12 [Example 226]
2 (≈ 4.17 µM) | 32 (≈ 66.7 µM) | 8 (≈ 16.7 µM) | 4 (≈ 8.34 µM) | 64 (≈ 133 µM) | C[C@@H](NC(=O)[C@H]1CCCN1)[C@H]1C(=O)N2C(C(=O)O)=C(S[C@@H]3CN[C@H](C(=O)N(C)C)C3)[C@H](C)[C@H]12 [Example 227]
1 (≈ 2.09 µM) | 64 (≈ 133 µM) | 4 (≈ 8.34 µM) | 8 (≈ 16.7 µM) | 64 (≈ 133 µM) | C[C@@H](NC(=O)[C@@H]1CCCN1)[C@H]1C(=O)N2C(C(=O)O)=C(S[C@@H]3CN[C@H](C(=O)N(C)C)C3)[C@H](C)[C@H]12 [Example 228]
16 (≈ 30.7 µM) | 32 (≈ 61.3 µM) | 64 (≈ 123 µM) | 64 (≈ 123 µM) | 128 (≈ 245 µM) | C[C@@H](NC(=O)CN(C)C=N)[C@H]1C(=O)N2C(C(=O)O)=C(S[C@@H]3CN[C@H](C(=O)N4CC[C@@H](N)C4)C3)[C@H](C)[C@H]12 [Example 229]
1 (≈ 1.86 µM) | 8 (≈ 14.9 µM) | 8 (≈ 14.9 µM) | 4 (≈ 7.45 µM) | 32 (≈ 59.6 µM) | C[C@@H](NC(=O)CN(C)C(=N)N)[C@H]1C(=O)N2C(C(=O)O)=C(S[C@@H]3CN[C@H](C(=O)N4CC[C@@H](N)C4)C3)[C@H](C)[C@H]12 [Example 230]
1 (≈ 2.02 µM) | 16 (≈ 32.3 µM) | 4 (≈ 8.07 µM) | 2 (≈ 4.04 µM) | 32 (≈ 64.6 µM) | C[C@@H](NC(=O)CN(C)C(=N)N)[C@H]1C(=O)N2C(C(=O)O)=C(S[C@@H]3CN[C@H](C(=O)N(C)C)C3)[C@H](C)[C@H]12 [Example 231]
2 (≈ 3.85 µM) | > 128 | 8 (≈ 15.4 µM) | 8 (≈ 15.4 µM) | 2 (≈ 3.85 µM) | COCc1cn([C@H](C)[C@H]2C(=O)N3C(C(=O)O)=C(S[C@@H]4CN[C@H](C(=O)N5CC[C@@H](N)C5)C4)[C@H](C)[C@H]23)nn1 [Example 232]
1 (≈ 2.09 µM) | > 128 | 4 (≈ 8.36 µM) | 4 (≈ 8.36 µM) | 4 (≈ 8.36 µM) | COCc1cn([C@H](C)[C@H]2C(=O)N3C(C(=O)O)=C(S[C@@H]4CN[C@H](C(=O)N(C)C)C4)[C@H](C)[C@H]23)nn1 [Example 233]
0.5 (≈ 0.97 µM) | > 128 | 4 (≈ 7.76 µM) | 4 (≈ 7.76 µM) | 0.5 (≈ 0.97 µM) | COCc1cn([C@H](C)[C@H]2C(=O)N3C(C(=O)O)=C(S[C@@H]4CN[C@H](CNS(N)(=O)=O)C4)[C@H](C)[C@H]23)nn1 [Example 234]
1 (≈ 1.86 µM) | 2 (≈ 3.73 µM) | 4 (≈ 7.45 µM) | 2 (≈ 3.73 µM) | 8 (≈ 14.9 µM) | CNCC(=O)N[C@H](C)[C@H]1C(=O)N2C(C(=O)O)=C(S[C@@H]3CN[C@H](C(=O)N4CCN(C(=N)N)CC4)C3)[C@H](C)[C@H]12 [Example 361, (4R,5S,6R)-3-((3S,5S)-5-(4-carbamimidoylpiperazine-1-carbonyl)pyrrolidin-3-ylthio)-4-methyl-6-((R)-1-(2-(methylamino)acetamido)ethyl)-7-oxo-1-azabicyclo[3.2.0]hept-2-ene-2-carboxylic acid]
